Laboratory results published in patent US10214544B2, “Imidazopyridazine and imidazothiadiazole compounds” (Universite de Montreal, priority 2015, dated 2019).

Each compound was assayed against PAR4 (Homo sapiens (Human), UniProt Q96RI0) (assay: FLIPR assay in PAR4-expressing HEK293 cells (PAR4 antagonist activity)). Conditions: inhibition of H-Ala-Phe(4-F)-Pro-Gly-Trp-Leu-Val-Lys-Asn-Gly-NH2-induced intracellular calcium mobilization.
Type: cell-based
Text: The FLIPR assay is an exemplary in vitro assay for measuring the activity of the PAR4 antagonists of the present invention. In this assay, intracellular calcium mobilization is induced in PAR4 expressing cells by a PAR4 agonist and calcium mobilization is monitored. See, e.g., Example A.
HEK293 cells stably expressing PAR4 were generated by a standard method of transfection of human PAR4 (F2R23) cDNA expression vector and selected based on PAR4 protein expression or mRNA expression. […] These cells also express endogenous PAR1 and can elicit calcium signal upon stimulation with PAR1 agonist peptide. Therefore, the same cells were also used to determine selectivity against PAR1 and agonist activity for both receptors. Cells from HEK293 PAR4 Clone 1.2A (BMS Arctic ID 383940) were propagated and used for calcium mobilization studies.
FLIPR-based calcium mobilization assay in HEK293 cells was used to measure PAR4 antagonism, agonism, and selectivity against PAR1. The activity of the PAR4 antagonists of the present invention were tested in PAR4 expressing cells by monitoring H-Ala-Phe(4-F)-[…]NH2-induced intracellular calcium mobilization. Counter screens for agonist activity and PAR1 antagonist activity were also performed. Briefly, PAR1/PAR4-expressing HEK293 cells were grown in DMEM (Life Technology, Grand Island, N.Y.) containing 10% heat-inactivated FBS, 1% Penicillin-Streptomycin, 10 μg/mL blasticidin, and 100 μg/mL Zeocin at 37° C. with 5% CO2. Cells were plated overnight prior to the experiment in a black 384-well Purecoat Amine clear bottom plate (Becton Dickinson Biosciences, San Jose, Calif.) at 10,000 cells/well in 30 μL growth medium and incubated in a humidified chamber at 37° C. with 5% CO2 overnight. Prior to compound addition, the cell medium was replaced with […] of 1× calcium and magnesium-containing Hank's Balanced Saline Solution (HBSS) (with 20 mM HEPES) and 1:1000 diluted fluorescent calcium indicator (Codex Biosolutions, Gaithersburg, Md.). After a 30 minute incubation period at 37° C. and a further 30 minute incubation and equilibration period at room temperature, 20 μL test compound (diluted in 1× HBSS buffer) was added at various concentrations at 0.17% dimethyl sulfoxide (DMSO) final concentration. Changes in fluorescence intensity were measured using a Functional Drug Screening System (FDSS, Hamamatsu, Japan) to determine agonist activities. The cells were then incubated for 30 minutes at room temperature followed by addition of 20 μL of agonist peptide for antagonist activity measurement. […] Compound potency was derived from 11-point concentration-response curves.
The following Table sets out results obtained employing various compounds of the invention tested in the FLIPR assay. As indicated above, the FLIPR assay, an in vitro assay, measures the PAR4 antagonist activity of compounds tested as described in Example A.

PAR4, sequence (Q96RI0 18-385): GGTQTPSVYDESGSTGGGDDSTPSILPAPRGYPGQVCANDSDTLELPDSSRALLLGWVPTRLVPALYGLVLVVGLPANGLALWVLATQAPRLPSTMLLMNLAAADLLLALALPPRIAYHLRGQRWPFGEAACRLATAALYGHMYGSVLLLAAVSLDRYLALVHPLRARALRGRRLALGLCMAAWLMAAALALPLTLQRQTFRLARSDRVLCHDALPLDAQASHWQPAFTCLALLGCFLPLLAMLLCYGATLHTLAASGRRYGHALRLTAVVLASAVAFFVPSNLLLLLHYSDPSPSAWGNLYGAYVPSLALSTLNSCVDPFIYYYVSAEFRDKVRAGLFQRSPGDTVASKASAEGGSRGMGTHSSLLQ

Row | Compound | EC50 [nM]
1 | COc1cc(OCc2cccc(NC(=O)c3ccccc3)c2)c2cc(-c3cn4nc(OC)sc4n3)oc2c1 [Example 1, N-(3-(((6-methoxy-2-(2-methoxyimidazo[2,1-b][1,3,4]thiadiazol-6-yl)benzofuran-4-yl)oxy)methyl)phenyl)benzamide] | 1.1
2 | COc1cc(OCc2cccc(NC(=O)c3ccc(F)cc3)c2)c2cc(-c3cn4nc(OC)sc4n3)oc2c1 [Example 2, 4-Fluoro-N-(3-(((6-methoxy-2-(2-methoxyimidazo[2,1-b][1,3,4]thiadiazol-6-yl)benzofuran-4-yl)oxy)methyl)phenyl)benzamide] | 1
3 | COc1cc(OCc2cccc(NC(=O)OC(C)(C)C)c2)c2cc(-c3cn4nc(OC)sc4n3)oc2c1 [Example 3, tert-Butyl (3-(((6-methoxy-2-(2-methoxyimidazo[2,1-b][1,3,4]thiadiazol-6-yl)benzofuran-4-yl)oxy)methyl)phenyl)carbamate] | 2.6
4 | COc1cc(OCc2cccc(N)c2)c2cc(-c3cn4nc(OC)sc4n3)oc2c1 [Example 4, 3-(((6-Methoxy-2-(2-methoxyimidazo[2,1-b][1,3,4]thiadiazol-6-yl)benzofuran-4-yl)oxy)methyl)aniline] | 17
5 | COc1cc(OCc2cccc(NC(=O)c3ccc(Cl)cc3)c2)c2cc(-c3cn4nc(OC)sc4n3)oc2c1 [Example 5, 4-Chloro-N-(3-(((6-methoxy-2-(2-methoxyimidazo[2,1-b][1,3,4]thiadiazol-6-yl)benzofuran-4-yl)oxy)methyl)phenyl)benzamide] | 1.3
6 | COc1cc(OCc2cccc(NC(=O)c3cccc(OC(F)(F)F)c3)c2)c2cc(-c3cn4nc(OC)sc4n3)oc2c1 [Example 6, N-(3-(((6-methoxy-2-(2-methoxyimidazo[2,1-b][1,3,4]thiadiazol-6-yl)benzofuran-4-yl)oxy)methyl)phenyl)-3-(trifluoromethoxy)benzamide] | 1.4
7 | COc1cc(OCc2cccc(NS(=O)(=O)c3ccccc3)c2)c2cc(-c3cn4nc(OC)sc4n3)oc2c1 [Example 7, N-(3-(((6-methoxy-2-(2-methoxyimidazo[2,1-b][1,3,4]thiadiazol-6-yl)benzofuran-4-yl)oxy)methyl)phenyl)benzenesulfonamide] | 10
8 | COc1cc(OCc2cccc(NC(=O)c3ccccc3OC(C)=O)c2)c2cc(-c3cn4nc(OC)sc4n3)oc2c1 [Example 8] | 1.6
9 | COc1cc(OCc2cccc(NC(=O)c3cc(C(F)(F)F)ccc3C(F)(F)F)c2)c2cc(-c3cn4nc(OC)sc4n3)oc2c1 [Example 9] | 2
10 | COc1cc(OCc2cccc(NC(=O)c3cccc(Br)c3)c2)c2cc(-c3cn4nc(OC)sc4n3)oc2c1 [Example 10] | 1.9
11 | COc1cc(OCc2cccc(NC(=O)c3cccc(Cl)c3)c2)c2cc(-c3cn4nc(OC)sc4n3)oc2c1 [Example 11] | 1.7
12 | COc1cc(OCc2cccc(NC(=O)c3c(Cl)cccc3Cl)c2)c2cc(-c3cn4nc(OC)sc4n3)oc2c1 [Example 12] | 1.5
13 | COc1cc(OCc2cccc(NC(=O)c3ccccc3C(F)(F)F)c2)c2cc(-c3cn4nc(OC)sc4n3)oc2c1 [Example 13] | 1.9
14 | COc1cc(OCc2cccc(NC(=O)c3ccc(F)c(F)c3F)c2)c2cc(-c3cn4nc(OC)sc4n3)oc2c1 [Example 14] | 1.4
15 | COc1cc(OCc2cccc(NC(=O)c3cccc4ccccc34)c2)c2cc(-c3cn4nc(OC)sc4n3)oc2c1 [Example 15] | 1.7
16 | COc1cc(OCc2cccc(NC(=O)c3cccc(C#N)c3)c2)c2cc(-c3cn4nc(OC)sc4n3)oc2c1 [Example 16] | 1.4
17 | COc1cc(OCc2cccc(NC(=O)COCc3ccccc3)c2)c2cc(-c3cn4nc(OC)sc4n3)oc2c1 [Example 17] | 0.55
18 | COc1ccc(C(=O)Nc2cccc(COc3cc(OC)cc4oc(-c5cn6nc(OC)sc6n5)cc34)c2)cc1 [Example 18] | 0.91
19 | COc1cc(OCc2cccc(NC(=O)c3cc(Cl)cc(Cl)c3)c2)c2cc(-c3cn4nc(OC)sc4n3)oc2c1 [Example 19] | 3.3
20 | COc1cc(OCc2cccc(NC(=O)c3cccc(C)c3)c2)c2cc(-c3cn4nc(OC)sc4n3)oc2c1 [Example 20] | 1.4
21 | COc1cc(OCc2cccc(NC(=O)c3c(F)cc(F)cc3F)c2)c2cc(-c3cn4nc(OC)sc4n3)oc2c1 [Example 21] | 1.5
22 | COc1cc(OCc2cccc(NC(=O)c3ccc4c(c3)OCO4)c2)c2cc(-c3cn4nc(OC)sc4n3)oc2c1 [Example 22] | 1.1
23 | COc1cc(OCc2cccc(NC(=O)c3ccc4ccccc4c3)c2)c2cc(-c3cn4nc(OC)sc4n3)oc2c1 [Example 23] | 1.8
24 | COc1cc(OCc2cccc(NC(=O)c3ccccc3I)c2)c2cc(-c3cn4nc(OC)sc4n3)oc2c1 [Example 24] | 1.4
25 | COc1cc(OCc2cccc(NC(=O)c3ccccc3Cl)c2)c2cc(-c3cn4nc(OC)sc4n3)oc2c1 [Example 25] | 1.7

Row | Compound | EC50 [nM]
26 | COc1cc(OCc2cccc(NC(=O)c3ccccc3F)c2)c2cc(-c3cn4nc(OC)sc4n3)oc2c1 [Example 26] | 0.75
27 | COc1cc(OCc2cccc(NC(=O)c3ccccc3C)c2)c2cc(-c3cn4nc(OC)sc4n3)oc2c1 [Example 27] | 0.87
28 | COc1cc(OCc2cccc(NC(=O)c3cccc(F)c3)c2)c2cc(-c3cn4nc(OC)sc4n3)oc2c1 [Example 28] | 2
29 | COc1cc(OCc2cccc(NC(=O)c3ccccc3OC)c2)c2cc(-c3cn4nc(OC)sc4n3)oc2c1 [Example 29] | 1.1
30 | COc1cc(OCc2cccc(NC(=O)c3ccc(F)c(C(F)(F)F)c3)c2)c2cc(-c3cn4nc(OC)sc4n3)oc2c1 [Example 30] | 1.8
31 | CCCc1ccc(C(=O)Nc2cccc(COc3cc(OC)cc4oc(-c5cn6nc(OC)sc6n5)cc34)c2)cc1 [Example 31] | 1.3
32 | COc1cc(OCc2cccc(NC(=O)c3ccc(C)cc3)c2)c2cc(-c3cn4nc(OC)sc4n3)oc2c1 [Example 32] | 1.6
33 | COc1cc(OCc2cccc(NC(=O)c3ccc([N+](=O)[O-])cc3)c2)c2cc(-c3cn4nc(OC)sc4n3)oc2c1 [Example 33] | 1.8
34 | COC(=O)c1ccc(C(=O)Nc2cccc(COc3cc(OC)cc4oc(-c5cn6nc(OC)sc6n5)cc34)c2)cc1 [Example 34] | 1.2
35 | COc1cc(OCc2cccc(NC(=O)COc3ccccc3)c2)c2cc(-c3cn4nc(OC)sc4n3)oc2c1 [Example 35] | 1
36 | COc1cc(OCc2cccc(NC(=O)c3ccc(C#N)cc3)c2)c2cc(-c3cn4nc(OC)sc4n3)oc2c1 [Example 36] | 2.5
37 | COc1cc(OCc2cccc(NC(=O)c3ccc(C(C)(C)C)cc3)c2)c2cc(-c3cn4nc(OC)sc4n3)oc2c1 [Example 37] | 2.5
38 | COc1cc(OCc2cccc(NC(=O)NCc3ccccc3)c2)c2cc(-c3cn4nc(OC)sc4n3)oc2c1 [Example 38] | 4.8
39 | COc1cc(OCc2cccc(NC(=O)c3ccc(I)cc3)c2)c2cc(-c3cn4nc(OC)sc4n3)oc2c1 [Example 39] | 2.4
40 | COc1cc(OCc2cccc(NC(=O)C(C)(C)Oc3ccccc3)c2)c2cc(-c3cn4nc(OC)sc4n3)oc2c1 [Example 40] | 1.4
41 | COc1cc(OCc2cccc(NC(=O)c3ccc(OC(F)(F)F)cc3)c2)c2cc(-c3cn4nc(OC)sc4n3)oc2c1 [Example 41] | 1.4
42 | COc1ccc(C(=O)Nc2cccc(COc3cc(OC)cc4oc(-c5cn6nc(OC)sc6n5)cc34)c2)c(OC)c1 [Example 42] | 2.3
43 | COc1cc(OCc2cccc(NC(=O)c3ccc(N(C)C)cc3)c2)c2cc(-c3cn4nc(OC)sc4n3)oc2c1 [Example 43] | 1.6
44 | COc1cc(OCc2cccc(NC(=O)c3c(C)noc3C)c2)c2cc(-c3cn4nc(OC)sc4n3)oc2c1 [Example 45] | 2.8
45 | COc1cc(OCc2cccc(NC(=O)c3ccc(OC)nc3)c2)c2cc(-c3cn4nc(OC)sc4n3)oc2c1 [Example 46] | 1.1
46 | COc1cc(OCc2cccc(NC(=O)Cc3cc(C)no3)c2)c2cc(-c3cn4nc(OC)sc4n3)oc2c1 [Example 47] | 6.9
47 | COc1cc(OCc2cccc(NC(=O)c3ccnc(F)c3)c2)c2cc(-c3cn4nc(OC)sc4n3)oc2c1 [Example 48] | 2.7
48 | COc1cc(OCc2cccc(NC(=O)Cc3nc(C)sc3C)c2)c2cc(-c3cn4nc(OC)sc4n3)oc2c1 [Example 49] | 0.85
49 | COc1cc(OCc2cccc(NC(=O)c3sc(C)nc3C)c2)c2cc(-c3cn4nc(OC)sc4n3)oc2c1 [Example 50] | 7.4
